# Data published in PubChem BioAssay AID1963431 (Molecular Pharmacology Branch, DTP, NCI, 2024).
# Tested on: Rh18 complex spheroid viability, percent test/control
# Assay: Anticancer human tumor Rh18 cell line growth inhibition [Asc];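 also: spheroids exposed to compound for 7 days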;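 as to viability, T/C: 100% = DMSO vehicle control wells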
# Details: for IC50: curve of first compound; for viability, T/C: stronger effect = lower value
# Procedure, shortened: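 Concentration series start at each agent's clinical Cmax, or at 10 microM when none is established, and drop in half-log steps; agents are applied alone or together to complex spheroids built with HUVEC and hMSC.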
structure (smiles),measurement,setting,value
Cn1ncnc1[C@H]1c2n[nH]c(=O)c3cc(F)cc(c23)N[C@@H]1c1ccc(F)cc1 + CNC(C)C(=O)NC1CN(S(=O)(=O)c2cccc(S(=O)(=O)N3CCC4CCC(C(=O)NC(c5ccccc5)c5ccccc5)N4C(=O)C(NC(=O)C(C)NC)C3)c2)CCC2CCC(C(=O)NC(c3ccccc3)c3ccccc3)N2C1=O,IC50,second compound 0.01 µM,3.74 nM
same,IC50,second compound 0.0316 µM,1.53 nM
same,IC50,second compound 0.1 µM,< 0.316 nM
same,IC50,second compound 0.316 µM,0.406 nM
same,IC50,second compound 1 µM,0.588 nM
same,"viability, T/C","second compound 0.01 µM, first compound 0.000316 µM",54.4%
same,"viability, T/C","second compound 0.01 µM, first compound 0.001 µM",64.3%
same,"viability, T/C","second compound 0.01 µM, first compound 0.00316 µM",53.5%
same,"viability, T/C","second compound 0.01 µM, first compound 0.01 µM",26.7%
same,"viability, T/C","second compound 0.01 µM, first compound 0.0316 µM",18.4%
same,"viability, T/C","second compound 0.01 µM, first compound 0.1 µM",19.2%
same,"viability, T/C","second compound 0.0316 µM, first compound 0.000316 µM",62.7%
same,"viability, T/C","second compound 0.0316 µM, first compound 0.001 µM",58.1%
same,"viability, T/C","second compound 0.0316 µM, first compound 0.00316 µM",36.5%
same,"viability, T/C","second compound 0.0316 µM, first compound 0.01 µM",23.1%
same,"viability, T/C","second compound 0.0316 µM, first compound 0.0316 µM",18.7%
same,"viability, T/C","second compound 0.0316 µM, first compound 0.1 µM",21.3%
same,"viability, T/C","second compound 0.1 µM, first compound 0.000316 µM",39.4%
same,"viability, T/C","second compound 0.1 µM, first compound 0.001 µM",47.7%
same,"viability, T/C","second compound 0.1 µM, first compound 0.00316 µM",34.6%
same,"viability, T/C","second compound 0.1 µM, first compound 0.01 µM",18%
same,"viability, T/C","second compound 0.1 µM, first compound 0.0316 µM",14.8%
same,"viability, T/C","second compound 0.1 µM, first compound 0.1 µM",15%
same,"viability, T/C","second compound 0.316 µM, first compound 0.000316 µM",55.7%
same,"viability, T/C","second compound 0.316 µM, first compound 0.001 µM",29.6%
same,"viability, T/C","second compound 0.316 µM, first compound 0.00316 µM",25.5%
same,"viability, T/C","second compound 0.316 µM, first compound 0.01 µM",19.6%
same,"viability, T/C","second compound 0.316 µM, first compound 0.0316 µM",12.4%
same,"viability, T/C","second compound 0.316 µM, first compound 0.1 µM",20%
same,"viability, T/C","second compound 1 µM, first compound 0.000316 µM",49.1%
same,"viability, T/C","second compound 1 µM, first compound 0.001 µM",51.2%
same,"viability, T/C","second compound 1 µM, first compound 0.00316 µM",42.9%
same,"viability, T/C","second compound 1 µM, first compound 0.01 µM",26.1%
same,"viability, T/C","second compound 1 µM, first compound 0.0316 µM",18.4%
same,"viability, T/C","second compound 1 µM, first compound 0.1 µM",14.2%
